In paper PMC7413254 (Nature Communications, 2020):
Where two headings read alike, the source gives them in different places.

Legend:
non-expressing oocytes = assay: cells; format: cell-based, Xenopus laevis; conditions: Xenopus laevis, non-expressing oocytes, total [3H]CQ transport, normalised to the oocyte type control, read-out: Uptake of [3H]CQ (% non-expressing oocyte control), cis-inhibition
Outline: (§1)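 Oocytes expressing PfCRT isoforms, or non-expressing controls, were incubated 1.5 h at 27.5 °C in ND96 buffer pH 5.5 (96 mM NaCl, 2 mM KCl, 1 mM MgCl2, 1.8 mM CaCl2, 10 mM MES, 10 mM Tris-base), measuring uptake from acidic medium into cytosol. Oocytes were washed ice-cold, SDS-lysed and counted by scintillation.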

PfCRT^3D7 = PfCRT^3D7 (Plasmodium falciparum, UniProt Q8IBZ9); assay: cell-based; format: cell-based; conditions: total [3H]CQ transport; for inhibition at 500 µM: [test solute] = 0.5 mM; for inhibition at 1000 µM: [test solute] = 1 mM; for inhibition at 2000 µM: [test solute] = 2 mM
Outline: as §1

PfCRT^Dd2 = PfCRT^Dd2 (Plasmodium falciparum, UniProt Q9N623, A220S/I356T/K76T/M74I/N326S/N75E/Q271E/R371I); assay: [3H]CQ uptake into Xenopus oocytes, cis-inhibition by unlabelled solute; format: cell-based
Outline: as §1

PfCRT^Ecu1110 = PfCRT^Ecu1110 (Plasmodium falciparum, UniProt Q9N623, A220S/I356L/K76T/N326D); assay: as above; format: cell-based
Outline: as §1

[1] = PfCRT3D7 oocytes, normalised to the oocyte type control, read-out: Uptake of [3H]CQ (% PfCRT3D7 control), cis-inhibition
[2] = mean ± SEM, SEM, read-out: Uptake of [3H]CQ (% PfCRTDd2 control), cis-inhibition, PfCRT3D7
[3] = read-out: PfCRT-mediated [3H]CQ transport, cis-inhibition (% PfCRTDd2 control)
[4] = read-out: Uptake of [3H]CQ (% PfCRTDd2 control), cis-inhibition
[5] = read-out: Uptake of [3H]CQ (% PfCRTDd2 control), cis-inhibition, PfCRTDd2, SEM
[6] = read-out: [3H]CQ transport (% PfCRTDd2 control), cis-inhibition, PfCRTDd2, SEM
[7] = read-out: PfCRT-mediated [3H]CQ transport, cis-inhibition (% PfCRTEcu1110 control)
[8] = read-out: Uptake of [3H]CQ (% PfCRTDd2 control), cis-inhibition, PfCRTEcu1110, SEM
[9] = read-out: Uptake of [3H]CQ (% PfCRTEcu1110 control), cis-inhibition
[10] = read-out: [3H]CQ transport (% PfCRTEcu1110 control), cis-inhibition, PfCRTEcu1110, SEM

Chain of PfCRT^Ecu1110 (Q9N623 whole entry A220S/I356L/K76T/N326D): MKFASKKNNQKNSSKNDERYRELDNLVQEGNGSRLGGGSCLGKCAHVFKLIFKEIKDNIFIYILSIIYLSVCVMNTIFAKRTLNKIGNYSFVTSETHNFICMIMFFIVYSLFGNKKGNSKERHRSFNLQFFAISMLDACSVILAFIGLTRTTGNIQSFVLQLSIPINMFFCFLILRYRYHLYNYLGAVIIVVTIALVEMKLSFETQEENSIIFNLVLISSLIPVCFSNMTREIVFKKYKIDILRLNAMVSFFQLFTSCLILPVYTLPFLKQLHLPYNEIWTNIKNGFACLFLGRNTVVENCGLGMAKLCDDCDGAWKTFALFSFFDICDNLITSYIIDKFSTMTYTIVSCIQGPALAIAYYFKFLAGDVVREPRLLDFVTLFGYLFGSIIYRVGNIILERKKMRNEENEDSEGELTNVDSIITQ
Chain of PfCRT^3D7 (Q8IBZ9 59-398): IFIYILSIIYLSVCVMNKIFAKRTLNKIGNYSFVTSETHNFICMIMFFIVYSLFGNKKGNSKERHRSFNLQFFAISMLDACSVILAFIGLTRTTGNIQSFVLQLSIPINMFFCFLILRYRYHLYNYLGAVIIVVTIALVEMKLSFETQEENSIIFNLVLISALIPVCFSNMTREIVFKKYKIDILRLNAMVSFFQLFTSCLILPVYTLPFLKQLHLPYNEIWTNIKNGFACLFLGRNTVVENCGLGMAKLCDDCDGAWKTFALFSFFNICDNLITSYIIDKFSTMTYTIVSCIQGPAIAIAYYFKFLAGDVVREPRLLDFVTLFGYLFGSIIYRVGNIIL
Chain of PfCRT^Dd2 (Q9N623 whole entry A220S/I356T/K76T/M74I/N326S/N75E/Q271E/R371I): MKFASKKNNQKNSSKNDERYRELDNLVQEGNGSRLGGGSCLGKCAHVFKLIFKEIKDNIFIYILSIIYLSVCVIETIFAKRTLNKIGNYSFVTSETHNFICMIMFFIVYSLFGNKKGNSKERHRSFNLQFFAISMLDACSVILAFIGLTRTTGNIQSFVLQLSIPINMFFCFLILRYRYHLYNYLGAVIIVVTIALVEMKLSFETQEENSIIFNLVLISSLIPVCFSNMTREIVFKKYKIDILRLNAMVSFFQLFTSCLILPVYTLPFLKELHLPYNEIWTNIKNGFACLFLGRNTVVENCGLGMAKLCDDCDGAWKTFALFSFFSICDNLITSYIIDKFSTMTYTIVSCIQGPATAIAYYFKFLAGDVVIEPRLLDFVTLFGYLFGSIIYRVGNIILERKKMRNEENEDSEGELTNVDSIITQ

N=C(N)NCCC[C@H](N)C(=O)O [L-arginine]
inhibition at 500 µM (non-expressing oocytes; [test solute] = 0.5 mM): 99 ± 3.7%
inhibition at 1000 µM (non-expressing oocytes; [test solute] = 1 mM): 99 ± 2.6%
inhibition at 2000 µM (non-expressing oocytes; [test solute] = 2 mM): 98 ± 5.2%
inhibition at 500 µM (PfCRT^3D7; [1]): 100 ± 4.2%
inhibition at 1000 µM (PfCRT^3D7; [1]): 99 ± 5.7%
inhibition at 2000 µM (PfCRT^3D7; [1]): 100 ± 5.3%
inhibition at 500 µM (PfCRT^3D7; [2]): 2.4 ± 0.07%
inhibition at 1000 µM (PfCRT^3D7; [2]): 2.9 ± 0.05%
inhibition at 2000 µM (PfCRT^3D7; [2]): 3.3 ± 0.03%
inhibition at 500 µM (PfCRT^Dd2; [3]): 99 ± 3.2%
inhibition at 1000 µM (PfCRT^Dd2; [3]): 99 ± 2.6%
inhibition at 2000 µM (PfCRT^Dd2; [3]): 95 ± 2.4%
inhibition at 500 µM (PfCRT^Dd2; [4]): 101 ± 4.8%
inhibition at 1000 µM (PfCRT^Dd2; [4]): 101 ± 5.8%
inhibition at 500 µM (PfCRT^Dd2; [5]): 101 ± 4.8%
inhibition at 1000 µM (PfCRT^Dd2; [5]): 101 ± 5.8%
inhibition at 2000 µM (PfCRT^Dd2; [5]): 98 ± 3.5%
inhibition at 500 µM (PfCRT^Dd2; [6]): 99 ± 3.2%
inhibition at 1000 µM (PfCRT^Dd2; [6]): 99 ± 2.6%
inhibition at 500 µM (PfCRT^Ecu1110; [7]): 98 ± 2.5%
inhibition at 1000 µM (PfCRT^Ecu1110; [7]): 95 ± 3.5%
inhibition at 2000 µM (PfCRT^Ecu1110; [7]): 99 ± 1.6%
inhibition at 500 µM (PfCRT^Ecu1110; [8]): 33 ± 2.4%
inhibition at 1000 µM (PfCRT^Ecu1110; [8]): 32 ± 1%
inhibition at 2000 µM (PfCRT^Ecu1110; [8]): 33 ± 1.4%
inhibition at 500 µM (PfCRT^Ecu1110; [9]): 100 ± 4.3%
inhibition at 1000 µM (PfCRT^Ecu1110; [9]): 97 ± 6.2%
inhibition at 2000 µM (PfCRT^Ecu1110; [9]): 101 ± 3.6%
inhibition at 500 µM (PfCRT^Ecu1110; [10]): 30 ± 0.6%
inhibition at 1000 µM (PfCRT^Ecu1110; [10]): 29 ± 0.4%
inhibition at 2000 µM (PfCRT^Ecu1110; [10]): 30 ± 0.5%
